Measured values from US10184115B2, “Mutated cellobiose dehydrogenase with increased substrate specificity” (DIRECTSENS GMBH, priority 2012, dated 2019).

Biological target: T1, Myriococcum thermophilum cellobiose dehydrogenase (CDH, SEQ ID NO: 1) variant W316L (Thermothelomyces myriococcoides, UniProt A9XK88, W316L)
T1 sequence (A9XK88 22-828 W316L): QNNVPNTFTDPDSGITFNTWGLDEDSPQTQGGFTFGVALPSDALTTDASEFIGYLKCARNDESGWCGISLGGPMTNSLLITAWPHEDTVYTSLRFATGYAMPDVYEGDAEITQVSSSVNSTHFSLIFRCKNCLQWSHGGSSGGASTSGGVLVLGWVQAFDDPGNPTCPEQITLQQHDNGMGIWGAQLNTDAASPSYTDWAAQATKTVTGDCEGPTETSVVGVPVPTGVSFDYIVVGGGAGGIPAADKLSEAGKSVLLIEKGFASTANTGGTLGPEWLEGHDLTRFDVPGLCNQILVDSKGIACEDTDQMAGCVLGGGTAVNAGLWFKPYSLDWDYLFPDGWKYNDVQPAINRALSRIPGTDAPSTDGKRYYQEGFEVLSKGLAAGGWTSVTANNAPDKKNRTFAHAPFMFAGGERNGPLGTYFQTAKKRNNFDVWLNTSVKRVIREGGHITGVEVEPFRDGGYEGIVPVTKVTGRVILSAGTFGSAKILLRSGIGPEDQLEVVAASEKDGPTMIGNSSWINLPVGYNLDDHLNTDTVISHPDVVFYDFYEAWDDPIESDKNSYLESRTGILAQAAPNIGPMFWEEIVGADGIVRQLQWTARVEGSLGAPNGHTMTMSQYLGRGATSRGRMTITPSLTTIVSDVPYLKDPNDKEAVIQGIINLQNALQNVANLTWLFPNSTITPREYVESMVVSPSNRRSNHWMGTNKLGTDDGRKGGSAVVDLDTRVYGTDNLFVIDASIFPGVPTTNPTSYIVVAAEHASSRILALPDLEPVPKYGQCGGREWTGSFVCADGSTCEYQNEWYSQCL
Assay: Steady-state kinetics, DCIP assay: M. thermophilum CDH W316L
Type: biochemical
Settings: apparent, pH 4.5, 30° C.
Method: Enzyme activity was assayed at 30° C. using either the DCIP (Karapetyan et al., 2005 Journal of Biotechnology 121: 34-48) or cytochrome c (Canevascini et al., 1991, European Journal of Biochemistry 198: 43-52) as electron acceptor. […] Stock solutions of carbohydrates used for kinetic measurements were prepared in the respective buffer and allowed to stand overnight for mutarotation, while stock solutions of electron acceptors were prepared in water and immediately used. The reaction stoichiometry is 1 for the two-electron acceptor DCIP (1 mole of DCIP reduced per mole of carbohydrate oxidized), but 2 for the one-electron acceptor cytochrome c. Kinetic constants were calculated by fitting the observed data to the Henri-Michaelis-Menten equation or to the adapted model for substrate inhibition using nonlinear least-squares regression and the program SigmaPlot (Systat Software, San Jose, Calif., USA). […]
Recombinant wild-type CDH as well as variants were produced in 1 L baffled flasks. […] Increase in activity was monitored using the DCIP and the cytochrome c enzyme assays. […]
The sample was loaded on a 20 mL PHE Sepharose FF column (HR26/20) equilibrated with 50 mM Na-acetate buffer pH 5.5 containing 20% ammonium sulfate. […] Fractions were tested for CDH activity and pooled according to the highest Reinheitszahl (RZ, calculated from the absorbance ratio 420 nm/280 nm). […]

OC[C@H]1O[C@H](O[C@H]2[C@H](O)[C@@H](O)C(O)O[C@@H]2CO)[C@H](O)[C@@H](O)[C@@H]1O (some centres unmarked) [Maltose, maltose]
kcat/KM: 2.6 M⁻¹ s⁻¹
kcat (~ values only estimated by non linear regression): 0.59 s⁻¹
